Results reported in patent publication US20240226115A1, “AXL INHIBITOR COMPOUNDS” (ARCUS BIOSCIENCES, INC., priority 2021, published 2024).

Target: T1, recombinant human MER (Homo sapiens, UniProt Q12866)
T1 construct: purchased Invitrogen
T1 sequence (Q12866 21-999): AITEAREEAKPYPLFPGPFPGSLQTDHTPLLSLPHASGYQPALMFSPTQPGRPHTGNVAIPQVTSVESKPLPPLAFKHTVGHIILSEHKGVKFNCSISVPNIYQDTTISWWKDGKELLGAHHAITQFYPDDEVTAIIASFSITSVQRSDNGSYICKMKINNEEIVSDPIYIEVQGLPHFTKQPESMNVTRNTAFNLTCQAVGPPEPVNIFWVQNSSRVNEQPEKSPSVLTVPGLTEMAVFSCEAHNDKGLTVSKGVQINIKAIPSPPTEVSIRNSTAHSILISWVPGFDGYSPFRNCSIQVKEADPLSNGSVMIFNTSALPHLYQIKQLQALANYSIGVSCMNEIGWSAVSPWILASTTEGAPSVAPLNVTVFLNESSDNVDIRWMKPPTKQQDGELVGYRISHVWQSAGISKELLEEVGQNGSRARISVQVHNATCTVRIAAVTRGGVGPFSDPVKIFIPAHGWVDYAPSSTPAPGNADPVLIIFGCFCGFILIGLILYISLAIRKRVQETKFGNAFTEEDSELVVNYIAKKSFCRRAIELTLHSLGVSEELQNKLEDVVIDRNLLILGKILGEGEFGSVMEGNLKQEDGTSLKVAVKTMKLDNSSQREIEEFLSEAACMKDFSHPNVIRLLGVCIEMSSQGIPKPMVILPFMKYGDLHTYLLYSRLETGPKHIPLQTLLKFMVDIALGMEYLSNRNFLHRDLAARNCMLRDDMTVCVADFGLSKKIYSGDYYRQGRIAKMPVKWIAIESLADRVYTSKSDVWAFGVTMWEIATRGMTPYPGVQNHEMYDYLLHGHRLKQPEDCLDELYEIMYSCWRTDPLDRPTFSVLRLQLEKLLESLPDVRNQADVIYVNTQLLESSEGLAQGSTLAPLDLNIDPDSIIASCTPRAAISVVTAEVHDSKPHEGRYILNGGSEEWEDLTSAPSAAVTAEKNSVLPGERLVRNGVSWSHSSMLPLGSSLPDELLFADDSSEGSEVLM
Experiment: HTRF KinEASE-TK biochemical potency, MER
Details: 1 nM MER, 700 μM ATP
Description: Purified recombinant human AXL, TYRO3 and MER proteins were purchased from Invitrogen™. 10 nM AXL, 2 nM TYRO3 or MER were incubated with varying concentrations of compounds in 50 mM HEPES, pH 7.4, 10 mM MgCl2, 0.01% BSA, 1 mM DTT and 2% DMSO in a total volume of 20 μl in a 384-well microplate (Corning™ #3640) at RT for 1 h. The AXL, TYRO3 and MER enzymatic reaction was initiated by transferring 10 μl of enzyme and compound mixture into 10 μl of 1.6 μM TK Substrate-biotin (HTRF® KinEASE-TK kit, Cisbio) and 1400 μM ATP pre-incubated in 50 mM HEPES, pH 7.4, 10 mM MgCl2, 0.01% BSA, 1 mM DTT in a 384-well microplate (Corning™ #3640) at RT, giving the final reaction conditions: 5 nM AXL, 1 nM TYRO3 or MER, 800 nM TK Substrate-biotin and 700 μM ATP in 50 mM HEPES, pH 7.4, 10 mM MgCl2, 0.01% BSA, 1 mM DTT and 1% DMSO with varying concentrations of compounds. Following 2 h incubation at RT, the AXL, TYRO3 and MER enzymatic reaction was stopped by transfer of 10 μl of reaction into 10 μl of detection mix (400 nM Streptavidin-XL665, 200-fold dilution TK Antibody-Cryptate and detection buffer, HTRF® KinEASE-TK kit, Cisbio) in a white 384-well microplate (Perkin Elmer, OptiPlate 384). After 1 h incubation at RT, the plate was put into a plate reader (Evision) to read at 665/620 nm (acceptor/donor) for HTRF. The value of the DMSO blank (MIN inhibition=100% activity) was used as a negative control. The positive control was established by adding 5 μl of enzyme and DMSO mixture into 10 μl of detection mix followed by addition of 5 μl of TK Substrate-biotin and ATP mixture (MAX inhibition=0% activity). To calculate the percent activity, Equation 1 was used. Ratio665/620 is the value at a given compound concentration: […]

Row | SMILES | IC50
1 | O=C1NCCOc2cc(-c3n[nH]c4ncc(-c5ccc6c(c5)CC[C@H](N5CCCC5)CC6)cc34)ccc21 (single isomer, unassigned) [Example 56] | 0.1 to 1 µM
2 | O=C1NCCOc2cc(-c3n[nH]c4ncc(-c5ccc6c(c5)CCN(C5CCCC5)CC6)cc34)ccc21 [Example 7, 8-[5-(3-Cyclopentyl-2,3,4,5-tetrahydro-1H-3-benzazepin-7-yl)-1H-pyrazolo[3,4-b]pyridin-3-yl]-2,3,4,5-tetrahydro-1,4-benzoxazepin-5-one] | < 0.1 µM
3 | O=C1NCCOc2cc(-c3n[nH]c4ncc(-c5ccc6c(c5)CCN(C5CCCC5)C6)cc34)ccc21 [Example 9, 8-(5-(2-Cyclopentyl-1,2,3,4-tetrahydroisoquinolin-6-yl)-1H-pyrazolo[3,4-b]pyridin-3-yl)-3,4-dihydrobenzo[f][1,4]oxazepin-5(2H)-one] | < 0.1 µM
4 | O=C1NCCOc2cc(-c3n[nH]c4ncc(-c5ccc6c(c5)CN(C5CCCC5)CC6)cc34)ccc21 [Example 10, 8-(5-(2-Cyclopentyl-1,2,3,4-tetrahydroisoquinolin-7-yl)-1H-pyrazolo[3,4-b]pyridin-3-yl)-3,4-dihydrobenzo[f][1,4]oxazepin-5(2H)-one] | < 0.1 µM
5 | O=C1NCCOc2cc(-c3n[nH]c4ncc(-c5ccc6c(c5)CCN(C5COC5)CC6)cc34)ccc21 [Example 11, 8-(5-(3-(Oxetan-3-yl)-2,3,4,5-tetrahydro-1H-benzo[d]azepin-7-yl)-1H-pyrazolo[3,4-b]pyridin-3-yl)-3,4-dihydrobenzo[f][1,4]oxazepin-5(2H)-one] | < 0.1 µM
6 | O=C1NCCOc2cc(-c3n[nH]c4ncc(-c5ccc6c(c5)CCN(C5COC5)C6)cc34)ccc21 [Example 12, 8-(5-(2-(Oxetan-3-yl)-1,2,3,4-tetrahydroisoquinolin-6-yl)-1H-pyrazolo[3,4-b]pyridin-3-yl)-3,4-dihydrobenzo[f][1,4]oxazepin-5(2H)-one] | 0.1 to 1 µM
7 | COCCN1CCc2cc(-c3cnc4[nH]nc(-c5ccc6c(c5)OCCNC6=O)c4c3)ccc2C1 [Example 13, 8-(5-(2-(2-Methoxyethyl)-1,2,3,4-tetrahydroisoquinolin-6-yl)-1H-pyrazolo[3,4-b]pyridin-3-yl)-3,4-dihydrobenzo[f][1,4]oxazepin-5(2H)-one] | 0.1 to 1 µM
8 | COCCN1CCc2ccc(-c3cnc4[nH]nc(-c5ccc6c(c5)OCCNC6=O)c4c3)cc2CC1 [Example 15, 8-(5-(3-(2-Methoxyethyl)-2,3,4,5-tetrahydro-1H-benzo[d]azepin-7-yl)-1H-pyrazolo[3,4-b]pyridin-3-yl)-3,4-dihydrobenzo[f][1,4]oxazepin-5(2H)-one] | < 0.1 µM
9 | CC(C)C(=O)N1CCc2ccc(-c3cnc4[nH]nc(-c5ccc6c(c5)OCCNC6=O)c4c3)cc2CC1 [Example 16, 8-{5-[3-(2-Methylpropanoyl)-2,3,4,5-tetrahydro-1H-3-benzazepin-7-yl]-1H-pyrazolo[3,4-b]pyridin-3-yl}-2,3,4,5-tetrahydro-1,4-benzoxazepin-5-one] | 0.1 to 1 µM
10 | O=C1NCCOc2cc(-c3n[nH]c4ncc(-c5ccc6c(c5)CCN(C(=O)C5CC5)CC6)cc34)ccc21 [Example 17, 8-[5-(3-Cyclopropanecarbonyl-2,3,4,5-tetrahydro-1H-3-benzazepin-7-yl)-1H-pyrazolo[3,4-b]pyridin-3-yl]-2,3,4,5-tetrahydro-1,4-benzoxazepin-5-one] | < 0.1 µM
11 | CC(C)(O)C(=O)N1CCc2ccc(-c3cnc4[nH]nc(-c5ccc6c(c5)OCCNC6=O)c4c3)cc2CC1 [Example 19, 8-(5-(3-(2-Hydroxy-2-methylpropanoyl)-2,3,4,5-tetrahydro-1H-benzo[d]azepin-7-yl)-1H-pyrazolo[3,4-b]pyridin-3-yl)-3,4-dihydrobenzo[f][1,4]oxazepin-5(2H)-one] | 0.1 to 1 µM
12 | O=C1NCCOc2cc(-c3n[nH]c4ncc(-c5ccc6c(c5)CCN(C5CC5)CC6)cc34)ccc21 [Example 20, 8-(5-(3-Cyclopropyl-2,3,4,5-tetrahydro-1H-benzo[d]azepin-7-yl)-1H-pyrazolo[3,4-b]pyridin-3-yl)-3,4-dihydrobenzo[f][1,4]oxazepin-5(2H)-one] | 0.1 to 1 µM
13 | O=C1NCCOc2cc(-c3n[nH]c4ncc(-c5ccc6c(c5)CCN(C5CC5)C6)cc34)ccc21 [Example 21, 8-(5-(2-Cyclopropyl-1,2,3,4-tetrahydroisoquinolin-6-yl)-1H-pyrazolo[3,4-b]pyridin-3-yl)-3,4-dihydrobenzo[f][1,4]oxazepin-5(2H)-one] | 0.1 to 1 µM
14 | CC1(N2CCCC2)CCc2ccc(-c3cnc4[nH]nc(-c5ccc6c(c5)OCCNC6=O)c4c3)cc2CC1 (stereo not drawn) [Example 22, 8-{5-[7-Methyl-7-(pyrrolidin-1-yl)-6,7,8,9-tetrahydro-5H-benzo[7]annulen-2-yl]-1H-pyrazolo[3,4-b]pyridin-3-yl}-2,3,4,5-tetrahydro-1,4-benzoxazepin-5-one] | < 0.1 µM

Further lines, results first:

Row | IC50 | SMILES
15 | < 0.1 µM | O=C1NCCOc2cc(-c3n[nH]c4ncc(-c5ccc6c(c5)CCC(N5CCCC5)CC6)cc34)ccc21 (racemic) [Example 1, 8-{5-[7-(Pyrrolidin-1-yl)-6,7,8,9-tetrahydro-5H-benzo[7]annulen-2-yl]-1H-pyrazolo[3,4-b]pyridin-3-yl}-2,3,4,5-tetrahydro-1,4-benzoxazepin-5-one]
16 | < 0.1 µM | O=C1NCCOc2cc(-c3n[nH]c4ncc(-c5ccc6c(c5)CC[C@@H](N5CCCC5)CC6)cc34)ccc21 (single isomer, unassigned) [Example 57]
17 | < 0.1 µM | O=C1NCCOc2cc(-c3n[nH]c4ncc(-c5ccc6c(c5)CCC(N5CCCC5)C6)cc34)ccc21 (stereo not drawn) [Example 2, 8-{5-[6-(Pyrrolidin-1-yl)-5,6,7,8-tetrahydronaphthalen-2-yl]-1H-pyrazolo[3,4-b]pyridin-3-yl}-2,3,4,5-tetrahydro-1,4-benzoxazepin-5-one]
18 | < 0.1 µM | O=C1NCCOc2cc(-c3n[nH]c4ncc(-c5ccc6c(c5)CC(N5CCCC5)CC6)cc34)ccc21 (stereo not drawn) [Example 3, 8-{5-[7-(Pyrrolidin-1-yl)-5,6,7,8-tetrahydronaphthalen-2-yl]-1H-pyrazolo[3,4-b]pyridin-3-yl}-2,3,4,5-tetrahydro-1,4-benzoxazepin-5-one]
19 | < 0.1 µM | O=C1NCCOc2cc(-c3n[nH]c4ncc(-c5ccc6c(c5)CCC(N[C@H]5CCOC5)C6)cc34)ccc21 (stereo partly drawn) [Example 4, 8-[5-(6-{[(3S)—Oxolan-3-yl]amino}-5,6,7,8-tetrahydronaphthalen-2-yl)-1H-pyrazolo[3,4-b]pyridin-3-yl]-2,3,4,5-tetrahydro-1,4-benzoxazepin-5-one]
20 | < 0.1 µM | O=C1NCCOc2cc(-c3n[nH]c4ncc(-c5ccc6c(c5)CCC(N[C@@H]5CCOC5)C6)cc34)ccc21 (stereo partly drawn) [Example 5, 8-[5-(6-{[(3R)—Oxolan-3-yl]amino}-5,6,7,8-tetrahydronaphthalen-2-yl)-1H-pyrazolo[3,4-b]pyridin-3-yl]-2,3,4,5-tetrahydro-1,4-benzoxazepin-5-one]
21 | < 0.1 µM | C[C@@H]1CCCN1C1CCc2ccc(-c3cnc4[nH]nc(-c5cc(F)c6c(c5)OCCNC6=O)c4c3)cc2CC1 (stereo partly drawn) [Example 6, 6-Fluoro-8-(5-{7-[(2R)-2-methylpyrrolidin-1-yl]-6,7,8,9-tetrahydro-5H-benzo[7]annulen-2-yl}-1H-pyrazolo[3,4-b]pyridin-3-yl)-2,3,4,5-tetrahydro-1,4-benzoxazepin-5-one]
